Laboratory results published in article PMC4372144 (Nature communications, 2015).

Test system: Type II collagenase
Test: Peptide cleavage kinetics, modified fluorescamine assay, Type II collagenase
Assay type: biochemical
Conditions: 1 U ml^−1 Type II collagenase, pH 7.4, 37°C, duration of the assay 9 hours, fluorescamine read-out

“GCEE-NGGSGGSN-GGGH-Methacrylate [Non-degradable peptide]” was tested, and the “protease-mediated cleavage of peptide” value was “not detectable”.
